In patent EP0007672A1, “Isocyanoalkenes, process and useful intermediates for their preparation, pharmaceutical and fungicidal preparations containing those isocyanoalkenes and the use of the fungicidal preparations in agriculture” (GIST-BROCADES N.V., priority 1978, dated 1980):
Converted amounts (≈) assume the structure as drawn. Like-named read-outs stand apart in the source and are kept apart here. Values belong to the compound of their own block, whether it stands above or below them.

Experiments:
Assay in all cases: MIC (Minimum Inhibitory Concentration)
Type in all cases: cell-based
Trichophyton rubrum = test system: Trichophyton rubrum
Description: (§1) In addition they may be used for combatting plant diseases, in particular as fungicides. A list of MIC (Minimum Inhibitory Concentration) values for a number of microorganisms is listed herebelow. The figures in the column headings refer to the compounds prepared according to the experimental examples in comparison with the spectrum of 1-[2-(2,4-dichlorophenyl)-2-{(2,4-dichlorophenyl)-methoxy} -ethyl7-1H-imidazole (better known under the name of miconazole, c.f. Merck Index 9th Ed. page 6047) or natamycin (pimaricin, c.f. Merck Index 9th Ed. page 7233).

Trichophyton equinum = test system: Trichophyton equinum
Description: as §1

Trichophyton violoceum = details: read-out: MIC values
Description: as §1

Pasteurella multocida = details: Pasteurella multocida, read-out: MIC values
Description: as §1

Trichophyton verrucosum = test system: Trichophyton verrucosum
Description: as §1

[1] = test system: Trichophyton mentagrophytus
Description: as §1

[2] = test system: Streptococcus haemolyticus; details: Streptococcus, read-out: MIC values
Description: as §1

[3] = test system: Trichophyton soudanese joyeux; details: read-out: MIC values
Description: as §1

Candida albicans = test system: Candida albicans
Description: as §1

[4] = test system: Trichophyton schoenleinii; details: read-out: MIC values
Description: as §1

Trichophyton quickeaneum = details: read-out: MIC values
Description: as §1

Trichophyton tonsurans = details: read-out: MIC values
Description: as §1

[5] = read-out: MIC values, Trichophyton rubrum 218-65
[6] = read-out: MIC values, Trichophyton rubrum 494-62
[7] = read-out: MIC values, Trichophyton rubrum A 810
[8] = read-out: MIC values, Trichophyton equinum 182-76
[9] = read-out: MIC values, Trichophyton equinum 441-51
[10] = read-out: MIC values, Trichophyton verrucosum 134-66
[11] = read-out: MIC values, Trichophyton verrucosum A 2922
[12] = read-out: MIC values, Trichophyton mentagrophytus 367-68
[13] = read-out: MIC values, Trichophyton mentagrophytus 421-67
[14] = read-out: MIC values, Trichophyton mentagrophytus A 3252
[15] = read-out: MIC values, Trichophyton mentagrophytus R 177
[16] = read-out: MIC values, Trichophyton mentagrophytus R 178
[17] = read-out: MIC values, Candida albicans A 7
[18] = read-out: MIC values, Candida albicans A 3140
[19] = read-out: MIC values, Candida albicans A 3141
[20] = read-out: MIC values, Candida albicans A 3142
[21] = read-out: MIC values, Candida albicans A 3143
[22] = read-out: MIC values, Candida albicans A 3144
[23] = read-out: MIC values, Candida albicans A 3145
[24] = read-out: MIC values, Candida albicans A 3165
[25] = read-out: MIC values, Candida albicans A 3166
[26] = read-out: MIC values, Candida albicans A 3167
[27] = read-out: MIC values, Candida albicans A 3169
[28] = read-out: MIC values, Candida albicans A 3171
[29] = read-out: MIC values, Candida albicans A 3184
[30] = read-out: MIC values, Candida albicans A 3190
[31] = read-out: MIC values, Candida albicans A 3192
[32] = read-out: MIC values, Candida albicans A 3194
[33] = read-out: MIC values, Candida albicans A 3196

Structure (SMILES): [C-]#[N+]C(=C1C2CC3CC(C2)CC1C3)S(=O)(=O)c1ccc(C)cc1 [Example 2, a-adamantylidene-a-(4-toluenesulphonyl) methylisocyanide]
MIC (Trichophyton rubrum; [5]): < 0.05 µg/mL
MIC (Trichophyton rubrum; [6]): > 100 µg/mL
MIC (Trichophyton rubrum; [7]): 50 µg/mL (≈ 153 µM)
MIC (Trichophyton equinum; [8]): 50 µg/mL (≈ 153 µM)
MIC (Trichophyton equinum; [9]): 25 µg/mL (≈ 76.3 µM)
MIC (Trichophyton equinum; read-out: MIC values, Trichophyton equinum 856-71): > 100 µg/mL
MIC (Trichophyton violoceum; Trichophyton): 50 µg/mL (≈ 153 µM)
MIC (Pasteurella multocida): > 100 µg/mL
MIC (Trichophyton verrucosum; [10]): 25 µg/mL (≈ 76.3 µM)
MIC (Trichophyton verrucosum; [11]): < 0.05 µg/mL
MIC [1, 12]: > 100 µg/mL
MIC [1, 13]: 50 µg/mL (≈ 153 µM)
MIC [1, 14]: > 100 µg/mL
MIC [1, 15]: 100 µg/mL (≈ 305 µM)
MIC [1, 16]: > 100 µg/mL
MIC ([1]; read-out: MIC values, Trichophyton mentagrophytus RRL 305): 50 µg/mL (≈ 153 µM)
MIC [2]: 50 µg/mL (≈ 153 µM)
MIC ([3]; Trichophyton): 50 µg/mL (≈ 153 µM)
MIC (Candida albicans; [17]): 0.8 µg/mL (≈ 2.44 µM)
MIC (Candida albicans; [18]): 12.5 µg/mL (≈ 38.2 µM)
MIC (Candida albicans; [19]): > 100 µg/mL
MIC (Candida albicans; [20]): > 100 µg/mL
MIC (Candida albicans; [21]): 0.8 µg/mL (≈ 2.44 µM)
MIC (Candida albicans; [22]): > 100 µg/mL
MIC (Candida albicans; [23]): > 100 µg/mL
MIC (Candida albicans; [24]): 50 µg/mL (≈ 153 µM)
MIC (Candida albicans; [25]): 50 µg/mL (≈ 153 µM)
MIC (Candida albicans; [26]): 25 µg/mL (≈ 76.3 µM)
MIC (Candida albicans; [27]): 1.5 µg/mL (≈ 4.58 µM)
MIC (Candida albicans; [28]): > 100 µg/mL
MIC (Candida albicans; [29]): 0.8 µg/mL (≈ 2.44 µM)
MIC (Candida albicans; [30]): 100 µg/mL (≈ 305 µM)
MIC (Candida albicans; [31]): 1.5 µg/mL (≈ 4.58 µM)
MIC (Candida albicans; [32]): > 100 µg/mL
MIC (Candida albicans; [33]): > 100 µg/mL
MIC ([4]; Trichophyton schoenleinii): 25 µg/mL (≈ 76.3 µM)
MIC (Trichophyton quickeaneum; Trichophyton): > 100 µg/mL

MIC (Trichophyton rubrum; Trichophyton rubrum 218-65, read-out: MIC values): 0.4 µg/mL (≈ 1.7 µM)
MIC (Trichophyton rubrum; Trichophyton rubrum 494-62, read-out: MIC values): 0.4 µg/mL (≈ 1.7 µM)
MIC (Trichophyton equinum; Trichophyton equinum 182-76, read-out: MIC values): 3 µg/mL (≈ 12.7 µM)
MIC (Trichophyton equinum; Trichophyton equinum 856-71, read-out: MIC values): 6 µg/mL (≈ 25.5 µM)
MIC (Trichophyton violoceum; Trichophyton violoceum 442-62): 0.1 µg/mL (≈ 0.425 µM)
MIC ([1]; Trichophyton mentagrophytus 367-68, read-out: MIC values): 1.5 µg/mL (≈ 6.37 µM)
MIC ([1]; Trichophyton mentagrophytus 421-67, read-out: MIC values): 1.5 µg/mL (≈ 6.37 µM)
MIC ([1]; Trichophyton mentagrophytus A 3252, read-out: MIC values): 0.8 µg/mL (≈ 3.4 µM)
MIC ([1]; Trichophyton mentagrophytus R 177, read-out: MIC values): 6 µg/mL (≈ 25.5 µM)
MIC ([1]; Trichophyton mentagrophytus R 178, read-out: MIC values): 50 µg/mL (≈ 212 µM)
MIC ([1]; Trichophyton mentagrophytus RRL 305, read-out: MIC values): 3 µg/mL (≈ 12.7 µM)
MIC ([3]; Trichophyton soudanese joyeux 440-63): 12.5 µg/mL (≈ 53.1 µM)
MIC (Candida albicans; Candida albicans A 7, read-out: MIC values): 3 µg/mL (≈ 12.7 µM)
MIC (Candida albicans; Candida albicans A 3140, read-out: MIC values): 12.5 µg/mL (≈ 53.1 µM)
MIC (Candida albicans; Candida albicans A 3141, read-out: MIC values): 25 µg/mL (≈ 106 µM)
MIC (Candida albicans; Candida albicans A 3142, read-out: MIC values): 25 µg/mL (≈ 106 µM)
MIC (Candida albicans; Candida albicans A 3143, read-out: MIC values): 25 µg/mL (≈ 106 µM)
MIC (Candida albicans; Candida albicans A 3144, read-out: MIC values): 25 µg/mL (≈ 106 µM)
MIC (Candida albicans; Candida albicans A 3145, read-out: MIC values): 12.5 µg/mL (≈ 53.1 µM)
MIC (Candida albicans; Candida albicans A 3165, read-out: MIC values): 12.5 µg/mL (≈ 53.1 µM)
MIC (Candida albicans; Candida albicans A 3166, read-out: MIC values): 12.5 µg/mL (≈ 53.1 µM)
MIC (Candida albicans; Candida albicans A 3167, read-out: MIC values): 25 µg/mL (≈ 106 µM)
MIC (Candida albicans; Candida albicans A 3168, read-out: MIC values): 25 µg/mL (≈ 106 µM)
MIC (Candida albicans; Candida albicans A 3169, read-out: MIC values): 25 µg/mL (≈ 106 µM)
MIC (Candida albicans; Candida albicans A 3171, read-out: MIC values): 12.5 µg/mL (≈ 53.1 µM)
MIC (Candida albicans; Candida albicans A 3184, read-out: MIC values): 12.5 µg/mL (≈ 53.1 µM)
MIC (Candida albicans; Candida albicans A 3190, read-out: MIC values): 12.5 µg/mL (≈ 53.1 µM)
MIC (Candida albicans; Candida albicans A 3191, read-out: MIC values): 25 µg/mL (≈ 106 µM)
MIC (Candida albicans; Candida albicans A 3192, read-out: MIC values): 25 µg/mL (≈ 106 µM)
MIC (Candida albicans; Candida albicans A 3194, read-out: MIC values): 25 µg/mL (≈ 106 µM)
MIC (Candida albicans; Candida albicans A 3196, read-out: MIC values): 25 µg/mL (≈ 106 µM)
MIC (Trichophyton tonsurans; Trichophyton tonsurans 561-50): < 0.1 µg/mL
MIC ([4]; Trichophyton schoenleinii 435-63): 0.2 µg/mL (≈ 0.85 µM)
MIC (Trichophyton quickeaneum; Trichophyton quickeaneum A 2040): 0.8 µg/mL (≈ 3.4 µM)
Structure (SMILES): [C-]#[N+]C(=C(C)C)S(=O)(=O)c1ccc(C)cc1 [Example 5, 1-isocyano-2-methyl-1-(4-toluenesulphonyl)-1-propene]

Structure (SMILES): [C-]#[N+]C(C1=CCCCCCC1)S(=O)(=O)c1ccc(C)cc1 (stereo not drawn) [Example 20, α-(cycloocten-1-yl)-α-(4-toluenesulphonyl) methylisocyanide]
MIC (Trichophyton rubrum; [5]): 12.5 µg/mL (≈ 41.2 µM)
MIC (Trichophyton rubrum; [6]): 12.5 µg/mL (≈ 41.2 µM)
MIC (Trichophyton rubrum; [7]): 100 µg/mL (≈ 330 µM)
MIC (Trichophyton equinum; [8]): 50 µg/mL (≈ 165 µM)
MIC (Trichophyton equinum; [9]): 12.5 µg/mL (≈ 41.2 µM)
MIC (Trichophyton violoceum; Trichophyton): 12.5 µg/mL (≈ 41.2 µM)
MIC (Pasteurella multocida): 50 µg/mL (≈ 165 µM)
MIC (Trichophyton verrucosum; [10]): 6 µg/mL (≈ 19.8 µM)
MIC (Trichophyton verrucosum; [11]): 6 µg/mL (≈ 19.8 µM)
MIC [1, 12]: 50 µg/mL (≈ 165 µM)
MIC [1, 13]: 100 µg/mL (≈ 330 µM)
MIC [1, 14]: 25 µg/mL (≈ 82.4 µM)
MIC [1, 15]: 50 µg/mL (≈ 165 µM)
MIC [1, 16]: > 100 µg/mL
MIC [2]: 12.5 µg/mL (≈ 41.2 µM)
MIC (Candida albicans; [17]): 6 µg/mL (≈ 19.8 µM)
MIC (Candida albicans; [18]): 6 µg/mL (≈ 19.8 µM)
MIC (Candida albicans; [19]): 6 µg/mL (≈ 19.8 µM)
MIC (Candida albicans; [20]): 6 µg/mL (≈ 19.8 µM)
MIC (Candida albicans; [21]): 6 µg/mL (≈ 19.8 µM)
MIC (Candida albicans; [22]): 6 µg/mL (≈ 19.8 µM)
MIC (Candida albicans; [23]): 6 µg/mL (≈ 19.8 µM)
MIC (Candida albicans; [24]): 6 µg/mL (≈ 19.8 µM)
MIC (Candida albicans; [25]): 6 µg/mL (≈ 19.8 µM)
MIC (Candida albicans; [26]): 6 µg/mL (≈ 19.8 µM)
MIC (Candida albicans; read-out: MIC values, Candida albicans A 3168): 6 µg/mL (≈ 19.8 µM)
MIC (Candida albicans; [27]): 6 µg/mL (≈ 19.8 µM)
MIC (Candida albicans; [28]): 6 µg/mL (≈ 19.8 µM)
MIC (Candida albicans; [29]): 6 µg/mL (≈ 19.8 µM)
MIC (Candida albicans; [30]): 6 µg/mL (≈ 19.8 µM)
MIC (Candida albicans; read-out: MIC values, Candida albicans A 3191): 6 µg/mL (≈ 19.8 µM)
MIC (Candida albicans; [31]): 6 µg/mL (≈ 19.8 µM)
MIC (Candida albicans; [32]): 3 µg/mL (≈ 9.89 µM)
MIC (Candida albicans; [33]): 6 µg/mL (≈ 19.8 µM)
MIC (Trichophyton tonsurans; Trichophyton tonsurans): 0.75 µg/mL (≈ 2.47 µM)
MIC ([4]; Trichophyton schoenleinii): 12.5 µg/mL (≈ 41.2 µM)
MIC (Trichophyton quickeaneum; Trichophyton): 25 µg/mL (≈ 82.4 µM)
